Reference: US20220023317A1, “PREVENTING OR MITIGATING CHEMOTHERAPY INDUCED ALOPECIA USING VITAMIN D” (Berg LLC, priority 2013, published 2022)
Read-outs that look alike come from different tables or passages of the source.

What was measured:
NCI-ES-0808 = assay: Cell growth / viability assay; type: cell-based
scalp hair follicles = assay: Rat model, duration of calcitriol treatment before chemotherapy; type: in vivo
Description: While not wishing to be bound by any particular theory, it is believed that application of vitamin D to the scalp or any other area of skin having hair induces differentiation of hair follicles, which is required for the stage conversion of the hair from a growing anagen stage to an involuting catagen stage. […] In humans, a hair follicle of the scalp has a substantially longer anagen phase than that of animals. Indeed, at any time, at least 90% of hair follicles in a human scalp are in the anagen phase. It is believed that a short treatment duration is not sufficient to induce catagen stage in scalp hair follicles, which subsequently makes them more susceptible to cytotoxicity of chemotherapy. […] Continued application on a daily basis will ensure the maintenance of the catagen stage and extended protection throughout administration of multiple doses of a chemotherapeutic (e.g., taxane-containing) regimen.

HEKa cells [1] = assay: Pretreatment of cells with calcitriol before chemotherapy drugs; type: cell-based, human
Experimental: Then these pretreated cells were utilized to set up the cell based assay. […] Three commonly used chemotherapy drugs (doxorubicin, cisplatin and erlotinib) were selected to evaluate calcitriol treated cells. […] In these experiments, the commercial drugs were serially diluted, starting at a concentration 4-times higher than the final desired concentration for cell incubation. […] The assay was carried out according to the previously described method in order to provide consistency and allow direct comparison. The result was based upon measurement of the total number of viable cells. […] Thus, a topical application of calcitriol could be applied at the same time as the systemic delivery of the chemotherapy. A staged application is not required.

[2] = system: EMT-6 murine breast tumor; settings: male mice, topical calcitriol before i.p. cyclophosphamide; cited from earlier work
C3H/HeJ mouse = assay: C3H/HeJ model of alopecia areata; type: in vivo; settings: 0.2 μg for 15 days, observed 30 days
Experimental: C3H/HeJ Model of Abpecia Areata. Retired breeders (8 months of age) were observed daily for the development of AA lesions. […] One group received ethanol vehicle control whereas the other received 0.2 μg 1,25(OH)2D3 in the alopecic lesions for 15 days.

Long Evans Rats = assay: Alopecia in chloroleukemic Long Evans rats receiving multi-course chemotherapy; type: in vivo, rat; settings: for extent of alopecia (grade): all rats
Description: Animals were then randomized in four groups.
Treatments were started on day 6 after birth.
Unused preparations were disposed of.

HEKa cells [3] = assay: Real-time PCR Neuroscience and Ion Channels array, calcitriol-treated HEKa; type: cell-based, human; settings: 0.1 μg/mL; for KCNB2 mRNA regulation pattern: full cell: upregulated until 24 hours
Experimental: Changes in mRNA levels were evaluated using real-time PCR quantification to assess mRNA levels in preselected subsets containing 80 pathway specific targets (see Appendix). The PCR array analysis utilized two groups of genes—those related to Heat Shock Proteins (SABiosciences), and those related to Neuroscience Ion Channels and Transporters (SABioscience). Cell culture: Primary human epidermal keratinocytes (HEKa) were maintained in Epilife Medium (Cascade Biologics, Inc., Portland Oreg.) along with Human Keratinocyte Growth Supplement (Cascade Biologics, Inc., Portland Oreg.). […] D3 treatment of HEKa cells: […] Vehicle control group of cells were treated with 5 mL media containing 1 μL of ethanol. Cells were harvested 3, 6, 16, 24, 48, or 72 hours after the start of the treatment. RNA isolation: Cells were lysed for RNA isolation at different treatment times using the RNeasy Mini kit (Qiagen, Inc., Valencia Calif.) following the manufacturer's instructions. RNA was quantified by measuring optical density at 260 nm. First Strand Synthesis: […] Real-time PCR: Products from the first strand synthesis were diluted with water, mixed with the SYBR green master mix (SABiosciences., Frederick Md.) and loaded onto PCR arrays. Real time PCR was run on the PCR Arrays (Heat Shock Protein Arrays, and Neuroscience and Ion Channel Arrays) (SABiosciences, Frederick Md.) on a Biorad CFX96. Data analyses were performed using the PCR array data analysis software available on the SABiosciences website.

[4] = Preliminary animal toxicology study; type: in vivo; settings: dose of about 100 μg
[5] = system: Long Evans and Sprague Dawley rats
Experimental: Specifically, Long Evans and Sprague Dawley rats with pups were purchased from Harlan Laboratories, Inc. They were housed and fed according to applicable animal handling rules and regulations. Pups were allowed to acclimate for 48 hours prior to the start of experiments. […] Rats were isolated from their littermates and mother for 6-hour periods of time. Subsequently, the treated area was cleaned with soap and water and pups were returned to their litters. On day 13, rats either received etoposide (1.5 mg/kg daily for 3 days) or cyclophosphamide (CTX) (37.5 mg/kg once) or combination cyclophosphamide (35 mg/kg once) and doxorubicin (2.5 mg/kg daily for 3 days). All chemotherapies were purchased from Sigma and were given intraperitoneally (i.p.) in a total volume of 0.1 mL. Alopecia was recorded 10 days after the last dose of chemotherapy.

HEKa cells [6] = assay: Keratinocyte growth with calcitriol titration; type: cell-based, human; settings: titration 0.008-2.0 μg/mL
Experimental: All experiments were conducted in 96-well plate format. Each well contained the same amount of HEKa cells in about 100 μL of media (usually between 2,000-5,000 cell/well). Calcitriol was dissolved in ethanol to make a stock solution. The stock solution was serially diluted 1:2 in the growth media, covering a range of between 4.0 μg/mL to about 15.5 ng/mL (9 test concentrations). […] All experiments were conducted in duplicates.

C=C1/C(=C\C=C2/CCC[C@]3(C)[C@@H]([C@H](C)CCCC(C)(C)O)CC[C@@H]23)C[C@@H](O)C[C@@H]1O [Calcitriol, (1a.3B.5Z.7E)-9,10-secocholesta-5,7,10(19)-triene-1,3,25-triol]
effect of calcitriol on cell growth (NCI-ES-0808): no significant growth promoting or growth inhibiting effects | effect of calcitriol on cytotoxic effect of Doxorubicin (NCI-ES-0808): did not appear to appreciably alter | daily application before chemotherapy required to see any protective effect (scalp hair follicles): at least four days | protection with 5 days of application before chemotherapy (scalp hair follicles; increasing protection up to one week): moderate protection | HEKa growth after prolonged calcitriol exposure (HEKa cells [1]; 0.1 μg/mL calcitriol, two cell passages): stopped growing | chemoprotection, pre-treatment group vs simultaneous treatment group (HEKa cells [1]; 0.1 μg/mL, doxorubicin, cisplatin, erlotinib): nearly identical | rate of tumor growth vs either agent alone [2]: greater reduction in the rate of tumor growth | regrowth of hair in alopecic lesions (C3H/HeJ mouse): No regrowth of hair | extent of alopecia (grade) (Long Evans Rats; ADM + paclitaxel + etoposide, first round): did not exhibit any signs of alopecia | rats with alopecia grade 0 (number) (Long Evans Rats; ADM + paclitaxel + etoposide, second round, topical calcitriol, of 32): 32 | extent of alopecia (grade) (Long Evans Rats; CTX + ADM + ARA-C, first round): did not exhibit any signs of alopecia | rats with alopecia grade 0 (number) (Long Evans Rats; CTX + ADM + ARA-C, second round, topical calcitriol, of 31): 31 | rats with alopecia grade 0 (number) (Long Evans Rats; CTX + ADM + cytarabine (ARA-C), first round, topical calcitriol 2 μg/mL, of 40): 40 | extent of alopecia (grade) (Long Evans Rats; CTX + ADM, first round): did not exhibit any signs of alopecia | rats with alopecia grade 0 (number) (Long Evans Rats; CTX + ADM, second round, topical calcitriol, of 20): 20 | rats with alopecia grade 0 (number) (Long Evans Rats; CTX + doxorubicin (ADM), first round, topical calcitriol 2 μg/mL, of 40): 40 | extent of alopecia (grade) (Long Evans Rats; CTX + paclitaxel + etoposide, first round): did not exhibit any signs of alopecia | rats with alopecia grade 0 (number) (Long Evans Rats; CTX + paclitaxel + etoposide, first round, topical calcitriol 2 μg/mL, of 40): 40 | rats with alopecia grade 0 (number) (Long Evans Rats; CTX + paclitaxel + etoposide, second round, topical calcitriol, of 33): 33 | extent of alopecia (grade) (Long Evans Rats; CTX, first round of chemotherapy): did not exhibit any signs of alopecia | rats with alopecia grade 0 (number) (Long Evans Rats; CTX, first round of chemotherapy, topical calcitriol 2 μg/mL 0.1 mL daily x6, 0 = no alopecia, of 40): 40 | rats with alopecia grade 0 (number) (Long Evans Rats; CTX, second round of chemotherapy, topical calcitriol days 40-45, of 10): 10 | rats with alopecia grade 0 (number) (Long Evans Rats; Doxorubicin (ADM) + paclitaxel + etoposide, first round, topical calcitriol 2 μg/mL, of 40): 40 | protection from CIA (Long Evans Rats; calcitriol 2 μg/mL, each of five chemotherapy regimens, first and second cycles): 100% | protection from CIA (Long Evans Rats; cyclophosphamide and doxorubicin group, both cycles): 100% | protection from CIA (Long Evans Rats; cyclophosphamide group, both cycles): 100% | protection from CIA (Long Evans Rats; cyclophosphamide, doxorubicin and cytarabine group, both cycles): 100% | protection from CIA (Long Evans Rats; cyclophosphamide, paclitaxel and etoposide group, both cycles): 100% | protection from CIA (Long Evans Rats; doxorubicin, paclitaxel and etoposide group, both cycles): 100% | SLC1A3 mRNA regulation pattern (HEKa cells [3]; full cell: downregulated at 48 hours): downregulated | SLC1A1 mRNA regulation pattern (HEKa cells [3]; full cell: upregulated at 16 hrs): upregulated | KCNN4 mRNA regulation pattern (HEKa cells [3]; full cell: upregulated at 48 hours): upregulated | KCNB2 mRNA regulation pattern (HEKa cells [3]): upregulated at about 24 hours | KCNB2 mRNA regulation pattern (HEKa cells [3]; listed as Vitamin D3): upregulated | dermal irritation [4]: no dermal irritation | skin penetration [4]: excellent epidermal penetration without substantial dermal penetration | protection from etoposide-induced alopecia ([5]; 0.1 μg of calcitriol topical for 6 hours, daily x6, etoposide 1.5 mg/kg x3): partial localized protection | protection from cyclophosphamide-induced alopecia ([5]; 0.3 μg calcitriol topical): full body protection | protection from etoposide-induced alopecia ([5]; 0.3 μg calcitriol topical): total body protection | stimulation of HEKa cell growth (HEKa cells [6]; lowest levels of calcitriol): 10-20% | calcitriol concentration at which cell growth is inhibited (HEKa cells [6]): ≥ 1.0 µg/mL
